Here are results for 5 compounds from patent US20240024385A1, “PROBIOTIC STRAIN FOR REDUCING SERUM URIC ACID, COMPOSITION AND USE THEREOF” (Ningbo Beiyijia Biotechnology Co., Ltd., priority 2022, published 2024).

For data set [1] the following is noted: 20° C.; cited from earlier work.
For data set [2], the system named is serum uric acid. The data set can be described thus: Combined use of composition 6 with a uric acid-reducing drug, serum uric acid in hyperuricemia patients with tophi. Set-up: Serum uric acid: unit not given here. The settings on record: for Serum uric acid: hyperuricemia patients with tophi, febuxostat 20 mg/day or benzbromarone 25 mg/day; for Effect on increase of serum uric acid level caused by dissolution of urate crystals by composition 6: small dose combined with composition 6 (febuxostat 20 mg/day or benzbromarone 25 mg/day). The format is in vivo, human. The source says: The process of dissolving urate crystals and tophi will result in a temporary increase of the serum uric acid level, which may lead to acute gout inflammation. In order to relieve the increase of the serum uric acid level caused by the dissolution of urate crystals or tophi, the effect of combined use of the composition 6 with a small-dose uric acid-reducing drug on the inhibition of the rise of the serum uric acid level was investigated.
Fifty hyperuricemia patients with tophi were recruited as volunteers, divided into 5 groups, and separately administered with the composition 6 and the uric acid-reducing drug (febuxostat 20 mg/day or benzbromarone 25 mg/day) alone or in combination. The change of serum uric acid during the intervention period was observed.

On to `Nc1nc2nc[nH]c2c(=O)[nH]1` [guanine], for which the Solubility in water in data set [1] is 0.17 mg/100 mL.
As for `Cc1nc(-c2ccc(OCC(C)C)c(C#N)c2)sc1C(=O)O` [febuxostat], the Serum uric acid was determined as 631 ± 51 in data set [2] (Day 0 (before intervention)), 571 ± 52 in data set [2] (Day 30), 478 ± 57 in data set [2] (Day 60) and 416 ± 59 in data set [2] (Day 90). In data set [2], the “Effect on increase of serum uric acid level caused by dissolution of urate crystals by composition 6” value is reported as “can inhibit the increase of the serum uric acid level”.
Turning to `Nc1nc2c(ncn2[C@@H]2O[C@H](CO)[C@@H](O)[C@H]2O)c(=O)[nH]1` [guanosine], the Solubility in water in data set [1] was 77.6 mg/100 mL.
Take `CCc1oc2ccccc2c1C(=O)c1cc(Br)c(O)c(Br)c1` [benzbromarone]: the Serum uric acid in data set [2] (Day 0 (before intervention)) was determined as 640 ± 78; in data set [2] (Day 30), 593 ± 71; in data set [2] (Day 60), 463 ± 53; in data set [2] (Day 90), 405 ± 37. For the same compound, the “Effect on increase of serum uric acid level caused by dissolution of urate crystals by composition 6” value in data set [2] is recorded as “can inhibit the increase of the serum uric acid level”.
Take `Nc1nc2c(ncn2[C@@H]2O[C@H](COP(=O)(O)O)[C@@H](O)[C@H]2O)c(=O)[nH]1` [guanosine monophosphate]: the Solubility in water in data set [1] is recorded as 20 g/100 mL.
